# Assays:
# U266 cells = assay: MM xenograft (U266 cells, subcutaneous) in NSG mice; type: in vivo; settings: 5 mg/kg WIN-55,212-2 intraperitoneally every 24 h or 48 h
# Method: NOD/scid/IL-2R gammae null (NSG) mice were purchased from Charles River Laboratories International (L'Arbresle, France) and maintained with food and water ad libitum, under specific pathogen-free conditions. When mice were 8-9 weeks old, human tumor xenografts were induced by subcutaneous inoculation in suprascapular area of MM cell line U266 cells. To establish tumor, 5×10e6 cells were resuspended in 100 ul RPMI medium without serum and 100 ul of Matrigel (BD Biosciences). To easy visualization the hair was trimmed from the site of inoculation. Closely second week following implantation, when tumors became palpable (>0.5 cm), mice were randomly assigned to the following groups (10 mice per group): group 1 received intraperitoneally 5 mg/kg WIN-55,212-2 every 24 h, group 2 received the treatment every 48 hl and group 3 received vehicle. […] Tumor growth was assessed three times each week following tumor implantation. Two bisecting diameters of each tumor were measured with calipers, and the volume was calculated using the formula length x (width) e2×0.4 mm3. […]
# The administration with cannabinoids inhibits remarkably the growth of tumor in vivo. Finally, we analyzed the anti-tumor effect of the cannabinoids in vivo, using a model of human MM xenografted in immunodeficient mice NOD/SCID. […]
# HL60 cells = assay: SPT expression, ceramide staining and SPT inhibition in HL60 cells; type: cell-based, human
# Method: Extracted proteins (15-25 ug/well) were separated by sodium dodecyl sulfate-polyacrylamide gel electrophoresis (SDS/PAGE) in pre-cast polyacrylamide gels AnykD (Bio-Rad Laboratories, Hercules, Calif., USA) under reducing and denaturing conditions. Electrophoretic run was performed at a constant current of 15 mA per gel in a Mini-Protean® Tetra Cell (Bio-Rad Laboratories) and were electrophoretically transferred onto PVDF membranes using Trans-Blot® Turbo™ System (Bio-Rad Laboratories). Blocking was performed with 2% bovine serum albumin [(BSA), Santa Cruz Biotechnology] in Tween-Tris buffer saline (TTBS). Membranes were incubated overnight at 4° C. with corresponding primary antibody in TTBS.
# Cells were grown on glass cover slips (Menzel-Glaser, Thermo Fisher Scientific) in the presence or absence of WIN 55,212-2. The cover slips were then washed twice in phosphate-buffered saline (PBS), and the cells were fixed in cold 4% paraformaldehyde for 10 min, treated with sodium borohydride and, permeabilized in 0.02% Triton X-100 in PBS with 10% normal donkey serum for blocking. Cell nuclei were stained with diamidino-2-phenylindole [(DAPI), Pierce, Thermo Fisher Scientific)]. Then, cells were incubated with the anti-CB1 or anti-CB2 receptor antibodies or anti-ceramide in blocking buffer overnight at 4° C. in a humid chamber (Simport, Beloeil, QC, Canada). After washing with PBS, samples were further incubated for 90 min with Alexa 647- or Alexa 488-conjugated donkey secondary antibody.
# After final washing in PBS, the cover slips were dried and mounted on slides using Fluoromount Aqueous Mounting Medium (Sigma-Aldrich). Changes in the protein expression were visualized by fluorescence microscopy using a specific excitation for each antibody. Digital images were acquired with CellSens Dimension Software (Olympus) and manipulated with Photoshop CS2 Software (Adobe Systems Inc). There was no labeling when the primary antibody was omitted (data not shown).
# Additionally, de novo synthesis of ceramides also contribute to the apoptotic process triggered by cannabinoids in AML. We examined whether ceramides participate in the cannabinoid-induced apoptosis in leukemic cells. To this end, we analyzed the expression of serine palmitoyltransferase (SPT), the enzyme that catalyses the rate-limiting step of ceramide synthesis de novo. […] To ensure that this up-regulation of SPT entails an increased of ceramide synthesis, we examined the expression of ceramide by immunohistochemistry. […] Furthermore, to strengthen the engagement of the ceramide in cannabinoid-induced apoptosis, we analyzed the cannabinoid-induce apoptosis after inhibition of ceramide synthesis with Myoricin, a selective SPT inhibitor.
compound,measurement,setting,value
"CS(=O)(=O)O.Cc1c(C(=O)c2cccc3ccccc23)c2cccc3c2n1[C@H](CN1CCOCC1)CO3 [WIN-55, (R)-(+)-[2,3-dihydro-5-methyl-3-(4-morpholinylmethyl)-pyrrolo-[1,2,3]-1,4-benzoxazin-6-yl]-1-naphthalenylmethanone mesylate]",tumor volume / tumor growth compared to vehicle-treated counterparts,U266 cells,inhibit tumor growth
same,SPT expression level in leukemic cells,HL60 cells; HL60,enhanced
same,"SPT, 2 h after exposure",HL60 cells; HL60,moderate increase
same,"ceramide by immunohistochemistry, compared to untreated cells","HL60 cells; HL60, 50 uM, 18 hours",remarkable increase
